Measurements from patent publication US20170355687A1, “ANTIBACTERIAL BENZOTHIAZOLE DERIVATIVES” (Actelion Pharmaceuticals Ltd, priority 2014, published 2017).
Values after ≈ are worked out from the molar mass of the structure shown. Counter-ions that a name gives are not always drawn. Like-named read-outs stand apart in the source and are kept apart here.

How the values were obtained:
Experiment in all cases: Bacterial growth minimal inhibitory concentration, microdilution in cation-adjusted Mueller-Hinton Broth (CLSI M7-A7)
Format in all cases: cell-based
E. coli ATCC25922 = conditions: for MIC: Escherichia coli
Description: (§1) Minimal Inhibitory Concentrations (MICs; mg/L) were determined in cation-adjusted Mueller-Hinton Broth by a microdilution method following the description given in “Methods for Dilution Antimicrobial Susceptibility Tests for Bacteria that Grow Aerobically”, Approved standard, 7th ed., Clinical and Laboratory Standards Institute (CLSI) Document M7-A7, Wayne, Pa., USA (2006).
(§2) All Example compounds were tested against several Gram-positive and Gram-negative bacteria. […] K pneumoniae A-651 is a multiply-resistant (in particular quinolone-resistant) strain, while E. coli ATCC25922 and P. aeruginosa ATCC27853 are quinolone-sensitive strains.

P. aeruginosa ATCC27853 = conditions: for MIC: Pseudomonas aeruginosa
Description: as §1, §2

K. Pneumoniae A-651 = conditions: for MIC: Klebsiella pneumoniae, read-out: MIC for K. Pneumoniae A-651
Description: as §1, §2

[1] = ATCC25922, quinolone-sensitive strain, read-out: MIC for E. coli ATCC25922
[2] = ATCC27853, quinolone-sensitive strain, read-out: MIC for P. aeruginosa ATCC27853
[3] = multiply-resistant (in particular quinolone-resistant) strain

Row | MIC (E. coli ATCC25922; [1]) [µg/mL] | MIC (P. aeruginosa ATCC27853; [2]) [µg/mL] | MIC (K. Pneumoniae A-651; [3]) [µg/mL] | Structure (SMILES) | other results
1 | 0.5 (≈ 1.23 µM) | 1 (≈ 2.46 µM) | 8 (≈ 19.7 µM) | CC(CCc1nc2ccc(C#CC#CCO)cc2s1)(C(=O)NO)S(C)(=O)=O (racemic) [RE4, (RS)-N-hydroxy-4-(6-(5-hydroxypenta-1,3-diyn-1-yl)benzo[d]thiazol-2-yl)-2-methyl-2-(methylsulfonyl)butanamide] | 
2 | 0.25 (≈ 0.557 µM) | 1 (≈ 2.23 µM) | 0.25 (≈ 0.557 µM) | C[C@@](CCc1nc2ccc(C#CC#CC3(O)COC3)cc2s1)(C(=O)NO)S(C)(=O)=O (single isomer, unassigned) [Example 1] | 
3 | 0.5 (≈ 1.15 µM) | 1 (≈ 2.3 µM) | 0.5 (≈ 1.15 µM) | CC(C)(O)C#CC#Cc1ccc2nc(CC[C@](C)(C(=O)NO)S(C)(=O)=O)sc2c1 [Example 4, (R)-N-hydroxy-4-(6-(5-hydroxy-5-methylhexa-1,3-diyn-1-yl)benzo[d]thiazol-2-yl)-2-methyl-2-(methylsulfonyl)butanamide] | 
4 | 1 (≈ 2.29 µM) | 1 (≈ 2.29 µM) | 8 (≈ 18.3 µM) | C[C@@](CCc1nc2ccc(C#CC#C[C@H](O)CO)cc2s1)(C(=O)NO)S(C)(=O)=O [Example 5, (R)-4-(6-((S)-5,6-dihydroxyhexa-1,3-diyn-1-yl)benzo[d]thiazol-2-yl)-N-hydroxy-2-methyl-2-(methylsulfonyl)butanamide] | 
5 | 0.25 (≈ 0.577 µM) | 1 (≈ 2.31 µM) | 1 (≈ 2.31 µM) | CC(C)(N)C#CC#Cc1ccc2nc(CC[C@](C)(C(=O)NO)S(C)(=O)=O)sc2c1 [Example 6, (R)-4-(6-(5-amino-5-methylhexa-1,3-diyn-1-yl)benzo[d]thiazol-2-yl)-N-hydroxy-2-methyl-2-(methylsulfonyl)butanamide] | 
6 | ≤ 0.063 | 0.5 (≈ 1.12 µM) | 0.125 (≈ 0.28 µM) | C[C@@](CCc1nc2ccc(C#CC#C[C@H]3C[C@@H]3CO)cc2s1)(C(=O)NO)S(C)(=O)=O [Example 7, (R)-N-hydroxy-4-(6-(((1S,2S)-2-(hydroxymethyl)cyclopropyl)buta-1,3-diyn-1-yl)benzo[d]thiazol-2-yl)-2-methyl-2-(methylsulfonyl)butanamide] | 
7 | 0.25 (≈ 0.56 µM) | 0.5 (≈ 1.12 µM) | 0.5 (≈ 1.12 µM) | C[C@@](CCc1nc2ccc(C#CC#CC3(CO)CC3)cc2s1)(C(=O)NO)S(C)(=O)=O [Example 8, (R)-N-hydroxy-4-(6-((1-(hydroxymethyl)cyclopropyl)buta-1,3-diyn-1-yl)benzo[d]thiazol-2-yl)-2-methyl-2-(methylsulfonyl)butanamide] | 
8 | 1 (≈ 2.23 µM) | 2 (≈ 4.47 µM) | 2 (≈ 4.47 µM) | C[C@@](CCc1nc2ccc(C#CC#CC3(N)COC3)cc2s1)(C(=O)NO)S(C)(=O)=O [Example 9, (R)-4-(6-((3-aminooxetan-3-yl)buta-1,3-diyn-1-yl)benzo[d]thiazol-2-yl)-N-hydroxy-2-methyl-2-(methylsulfonyl)butanamide] | 
9 | 0.125 (≈ 0.271 µM) | 2 (≈ 4.34 µM) | 0.5 (≈ 1.09 µM) | C[C@@](CCc1nc2ccc(C#CC#CC3(CO)CCC3)cc2s1)(C(=O)NO)S(C)(=O)=O [Example 12, (R)-N-hydroxy-4-(6-((1-(hydroxymethyl)cyclobutyl)buta-1,3-diyn-1-yl)benzo[d]thiazol-2-yl)-2-methyl-2-(methylsulfonyl)butanamide] | 
10 | 0.125 (≈ 0.271 µM) | 1 (≈ 2.17 µM) | 0.5 (≈ 1.09 µM) | C[C@@]1(C#CC#Cc2ccc3nc(CC[C@](C)(C(=O)NO)S(C)(=O)=O)sc3c2)C[C@H]1CO [Example 15, (R)-N-hydroxy-4-(6-(((1R,2R)-2-(hydroxymethyl)-1-methylcyclopropyl)buta-1,3-diyn-1-yl)benzo[d]thiazol-2-yl)-2-methyl-2-(methylsulfonyl)butanamide] | 
11 | 0.125 (≈ 0.288 µM) | 2 (≈ 4.61 µM) | 0.25 (≈ 0.577 µM) | CN(C)CC#CC#Cc1ccc2nc(CC[C@](C)(C(=O)NO)S(C)(=O)=O)sc2c1 [Example 17, (R)-4-(6-(5-(dimethylamino)penta-1,3-diyn-1-yl)benzo[d]thiazol-2-yl)-N-hydroxy-2-methyl-2-(methylsulfonyl)butanamide] | 

More lines, now with the values behind:

Row | Structure (SMILES) | MIC (E. coli ATCC25922; [1]) [µg/mL] | MIC (P. aeruginosa ATCC27853; [2]) [µg/mL] | MIC (K. Pneumoniae A-651; [3]) [µg/mL] | other results
12 | COc1ccc(-c2ccc3nc(CCC(C)(C(=O)NO)S(C)(=O)=O)sc3c2)cc1 (racemic) [RE1, (RS)-N-hydroxy-4-(6-(4-methoxyphenyl)benzo[d]thiazol-2-yl)-2-methyl-2-(methylsulfonyl)butanamide] | 0.25 (≈ 0.575 µM) | 16 (≈ 36.8 µM) | 2 (≈ 4.6 µM) | 
13 | CC(CCc1nc2ccc(C#Cc3ccc(CO)cc3)cc2s1)(C(=O)NO)S(C)(=O)=O (racemic) [RE2, (RS)-N-hydroxy-4-(6-((4-(hydroxymethyl)phenyl)ethynyl)benzo[d]thiazol-2-yl)-2-methyl-2-(methylsulfonyl)butanamide] | 0.125 (≈ 0.273 µM) | 16 (≈ 34.9 µM) | 0.5 (≈ 1.09 µM) | 
14 | CC(CCc1nc2ccc(C#Cc3ccc(C4(N)COC4)cc3)cc2s1)(C(=O)NO)S(C)(=O)=O.Cc1ccc(S(=O)(=O)O)cc1 (racemic) [RE3, (RS)-4-(6-((4-(3-aminooxetan-3-yl)phenyl)ethynyl)-benzo[d]thiazol-2-yl)-N-hydroxy-2-methyl-2-(methylsulfonyl)butanamide 4-methyl-benzenesulfonate] | 4 | 8 | 1 | 
15 | C[C@@](CCc1nc2ccc(C#CC#C[C@]3(O)C[C@@H](CO)C3)cc2s1)(C(=O)NO)S(C)(=O)=O (relative stereo) [Example 21, (R)-N-hydroxy-4-(6-((cis-1-hydroxy-3-(hydroxymethyl)cyclobutyl)buta-1,3-diyn-1-yl)benzo[d]thiazol-2-yl)-2-methyl-2-(methylsulfonyl)butanamide] |  |  |  | MIC for E. coli ATCC25922 (E. coli ATCC25922; quinolone-sensitive strain): 1 mg/L; MIC for P. aeruginosa ATCC27853 (P. aeruginosa ATCC27853; quinolone-sensitive strain): 2 mg/L; MIC for K. Pneumoniae A-651 (K. Pneumoniae A-651; [3]): 2 mg/L
16 | C[C@@](CCc1nc2ccc(C#CC#C[C@@]3(F)C[C@@H]3CO)cc2s1)(C(=O)NO)S(C)(=O)=O (relative stereo) [Example 23, (R)-4-(6-(((1R*,2R*)-1-fluoro-2-(hydroxymethyl)cyclopropyl)buta-1,3-diyn-1-yl)benzo[d]thiazol-2-yl)-N-hydroxy-2-methyl-2-(methylsulfonyl)butanamide] | ≤ 0.063 | 0.5 (≈ 1.08 µM) | 0.25 (≈ 0.538 µM) | 
17 | C[C@@](CCc1nc2ccc(C#CC#C[C@H]3C[C@]3(F)CO)cc2s1)(C(=O)NO)S(C)(=O)=O (relative stereo) [Example 24, (R)-4-(6-(((1R*,2R*)-2-fluoro-2-(hydroxymethyl)cyclopropyl)buta-1,3-diyn-1-yl)benzo[d]thiazol-2-yl)-N-hydroxy-2-methyl-2-(methylsulfonyl)butanamide] | ≤ 0.063 | 0.25 (≈ 0.538 µM) | 0.25 (≈ 0.538 µM) | 
18 | COc1ccc(-c2ccc3nc(CC[C@](C)(C(=O)NO)S(C)(=O)=O)sc3c2)c(F)c1 [Example 2, (R)-4-(6-(2-fluoro-4-methoxyphenyl)benzo[d]thiazol-2-yl)-N-hydroxy-2-methyl-2-(methylsulfonyl)butanamide] | ≤ 0.063 | 2 (≈ 4.42 µM) | 0.25 (≈ 0.552 µM) | 
19 | C[C@@](CCc1nc2ccc(C#Cc3ccc(C4(O)COC4)cc3)cc2s1)(C(=O)NO)S(C)(=O)=O [Example 3, (R)-N-hydroxy-4-(6-((4-(3-hydroxyoxetan-3-yl)phenyl)ethynyl)benzo[d]thiazol-2-yl)-2-methyl-2-(methylsulfonyl)butanamide] | 4 (≈ 7.99 µM) | 8 (≈ 16 µM) | 1 (≈ 2 µM) | 
20 | C[C@@](CCc1nc2ccc(C#CC#CC3(N)CC3)cc2s1)(C(=O)NO)S(C)(=O)=O [Example 10, (R)-4-(6-((1-aminocyclopropyl)buta-1,3-diyn-1-yl)benzo[d]thiazol-2-yl)-N-hydroxy-2-methyl-2-(methylsulfonyl)butanamide hydrochloride] |  |  |  | MIC (E. coli ATCC25922; ATCC25922, read-out: MIC for E. coli ATCC25922): 0.125 µg/mL; MIC (P. aeruginosa ATCC27853; ATCC27853, read-out: MIC for P. aeruginosa ATCC27853): 1 µg/mL; MIC (K. Pneumoniae A-651): 0.25 µg/mL
21 | C[C@@](CCc1nc2ccc(C#Cc3ccc(C4(CO)CC4)cc3)cc2s1)(C(=O)NO)S(C)(=O)=O [Example 11, (R)-N-hydroxy-4-(6-((4-(1-(hydroxymethyl)cyclopropyl)phenyl)ethynyl)benzo[d]thiazol-2-yl)-2-methyl-2-(methylsulfonyl)butanamide] | 0.125 (≈ 0.251 µM) | 4 (≈ 8.02 µM) | 0.5 (≈ 1 µM) | 
22 | C[C@@](CCc1nc2ccc(C#CC#C[C@@H]3C[C@@H](O)[C@@H](O)C3)cc2s1)(C(=O)NO)S(C)(=O)=O [Example 13, (R)-4-(6-(((1s,3R,4S)-3,4-dihydroxycyclopentyl)buta-1,3-diyn-1-yl)benzo[d]thiazol-2-yl)-N-hydroxy-2-methyl-2-(methylsulfonyl)butanamide] |  |  |  | MIC for E. coli ATCC25922 (E. coli ATCC25922; quinolone-sensitive strain): 0.25 mg/L; MIC for P. aeruginosa ATCC27853 (P. aeruginosa ATCC27853; quinolone-sensitive strain): 1 mg/L; MIC for K. Pneumoniae A-651 (K. Pneumoniae A-651; [3]): 0.5 mg/L
23 | C[C@@](CCc1nc2ccc(C#CC#CCC3(O)COC3)cc2s1)(C(=O)NO)S(C)(=O)=O [Example 14, (R)-N-hydroxy-4-(6-(5-(3-hydroxyoxetan-3-yl)penta-1,3-diyn-1-yl)benzo[d]thiazol-2-yl)-2-methyl-2-(methylsulfonyl)butanamide] | 0.5 (≈ 1.08 µM) | 1 (≈ 2.16 µM) | 1 (≈ 2.16 µM) | 
24 | C[C@@](CCc1nc2ccc(C#CC#C[C@@H]3CC[C@@H](N)CO3)cc2s1)(C(=O)NO)S(C)(=O)=O [Example 16, (R)-4-(6-(((2S,5R)-5-aminotetrahydro-2H-pyran-2-yl)buta-1,3-diyn-1yl)benzo[d]thiazol-2-yl)-N-hydroxy-2-methyl-2-(methylsulfonyl)butanamide] | 4 (≈ 8.41 µM) | 4 (≈ 8.41 µM) | 8 (≈ 16.8 µM) | 
